Reference: patent US20230286929A1, “AROMATIC BRIDGED RING AMIDE DERIVATIVES FOR THE TREATMENT AND PROPHYLAXIS OF HEPATITIS B VIRUS INFECTION” (Hoffmann-La Roche Inc., priority 2020, published 2023)
pIC50: −log10 of the molar value.

How the values were obtained:
Assay type in all cases: cell-based
HBsAg = test: PHH HBV natural infection assay, HBsAg (alphalisa); settings: Hepatitis B virus, Hepatocyte, 72 h, read-out: HBsAg IC50
Procedure: (§1) Detailed procedures regarding primary human hepatocyte (PHH) HBV natural infection assay are described as below. One tube of frozen PHH (10 million cells) is thawed in 37° C. water bath and then transferred to 20 mL of PHH thawing medium (Sigma, InVitroGRO HT Medium, Cat. S03319) with gently mixing. The cells were then centrifuged at […] for 5 min, the supernatant was discarded and the tube was refilled with 25 mL of PHH plating medium (Sigma, InVitroGRO CP Medium, Cat. 503317). The tube was shaken very gently to re-suspend all cells. 50 μl of cells were transferred to each well 384-well collagen I coated plate with appropriate liquid handling equipment, e.g. Integra VIAFLO384 or Agilent Bravo. The cells were then cultured for 24 hours in a cell incubator. For HBV infection, after PHH attachment on the culture plate, the plating medium was removed and replenished with PHH culture medium containing HBV virus. The PHH culture medium was prepared with Dulbecco's Modified Eagle Medium (DMEM)/F12 (1:1 in volume ratio) containing 10% fetal bovine serum (Gibco, Cat. 10099141), […] (Gibco, Cat. PHG03I1L), 20 ng/mL dexamethasone (Sigma, Cat. D4902-100 mg), 250 ng/mL human recombinant insulin (Gibco, Cat. 41400045) and 100 U/mL penicillin. HBV virus at 200 genome equivalent (GE) per cell with 4% PEG8000 (Sigma, Cat. P1458) containing culture medium were added to the PHH culture medium for infection. The cells were then cultured for 24 hours in cell incubator. Then the cell culture supernatant was removed. The HBV-infected PHH were cultured with sandwich culture method with PHH culture medium containing 1% DMSO and 0.25 mg/mL matrix gel for 72 hours. The supernatant was then refreshed with PHH culture medium containing different concentrations of testing compounds for two times with 72-hour interval. At the end of treatment, the supernatant was collected for viral markers measurements, including HBsAg, HBeAg, HBV DNA and cytotoxicity. HBsAg and HBeAg were detected using alphalisa method using their specific antibodies. For HBV DNA detection, HBV DNA Quantitative Fluorescence Diagnostic Kit (Sansure Biotech Inc.) was used following the manufacture's protocol. Cytotoxicity was determined using Cell Counting Kit-8 (CCK8, Dojindo Molecular Technologies, Inc.).
(§2) The compounds of the present invention were tested for their capacity to inhibit HBsAg and HBeAg as described herein.

HBeAg = test: PHH HBV natural infection assay, HBeAg (alphalisa); settings: Hepatitis B virus, Hepatocyte, 72 h, read-out: HbeAg IC50
Procedure: as §1, §2

[1] = Cytotoxicity in PHH natural infection assay (Cell Counting Kit-8); settings: HBV-infected primary human hepatocytes, CCK8
Procedure: as §1

Row | SMILES | pIC50 (HBsAg) | pIC50 (HBeAg) | CC50 at 144 h [1] [µM]
1 | CS(=O)(=O)c1cccc(C(=O)NC23CC(c4nc5cc(Cl)ccc5o4)(C2)C3)c1 [Example 22, N-[3-(5-chloro-1,3-benzoxazol-2-yl)-1-bicyclo[1.1.1]pentanyl]-3-methylsulfonyl-benzamide] | 5.52 | 5.63 | > 100
2 | O=C(NC12CC(c3nc4cc(Cl)ccc4o3)(C1)C2)c1ccnc(C(F)(F)F)c1 [Example 23, N-[3-(5-chloro-1,3-benzoxazol-2-yl)-1-bicyclo[1.1.1]pentanyl]-2-(trifluoromethyl)pyridine-4-carboxamide] | 5.69 | 5.77 | 96.9
3 | O=C(NC12CC(c3nc4cc(Cl)ccc4o3)(C1)C2)c1cncc(C(F)(F)F)c1 [Example 24, N-[3-(5-chloro-1,3-benzoxazol-2-yl)-1-bicyclo[1.1.1]pentanyl]-5-(trifluoromethyl)pyridine-3-carboxamide] | 5.28 | 5.05 | > 100
4 | O=C(NC12CC(c3nc4cc(Cl)ccc4o3)(C1)C2)c1ccc(C(F)(F)F)nc1 [Example 25, N-[3-(5-chloro-1,3-benzoxazol-2-yl)-1-bicyclo[1.1.1]pentanyl]-6-(trifluoromethyl)pyridine-3-carboxamide] | 5.06 | 5.36 | > 100
5 | O=C(NC12CC(c3nc4cc(Cl)ccc4o3)(C1)C2)c1cnc(C(F)(F)F)nc1 [Example 26, N-[3-(5-chloro-1,3-benzoxazol-2-yl)-1-bicyclo[1.1.1]pentanyl]-2-(trifluoromethyl)pyrimidine-5-carboxamide] | 5.20 | 5.44 | 88.2
6 | O=C(NC12CC(c3nc4cc(Cl)ccc4o3)(C1)C2)c1ccc(C(F)(F)F)nn1 [Example 27, N-[3-(5-chloro-1,3-benzoxazol-2-yl)-1-bicyclo[1.1.1]pentanyl]-6-(trifluoromethyl)pyridazine-3-carboxamide] | 5.41 | 5.95 | > 100
7 | O=C(NC12CC(c3nc4cc(Cl)ccc4o3)(C1)C2)c1cc(Cl)ccc1Cl [Example 28, 2,5-dichloro-N-[3-(5-chloro-1,3-benzoxazol-2-yl)-1-bicyclo[1.1.1]pentanyl]benzamide] | 5.00 | 4.99 | > 100
8 | CS(=N)(=O)c1cccc(C(=O)NC23CC(c4nc5cc(Cl)ccc5o4)(C2)C3)c1 (stereo not drawn) [Example 29, N-[3-(5-chloro-1,3-benzoxazol-2-yl)-1-bicyclo[1.1.1]pentanyl]-3-(methylsulfonimidoyl)benzamide] | 5.41 | 5.51 | > 100
9 | O=C(NC12CC(c3nc4cc(Cl)ccc4o3)(C1)C2)C1CC2(C1)CS(=O)(=O)C2 [Example 30, N-[3-(5-chloro-1,3-benzoxazol-2-yl)-1-bicyclo[1.1.1]pentanyl]-2,2-dioxo-2lambda6-thiaspiro[3.3]heptane-6-carboxamide] | 5.01 | 5.11 | > 100
10 | CCCC(=O)NS(=O)(=O)c1ccc(C(=O)NC23CC(c4nc5cc(Cl)ccc5o4)(C2)C3)o1 [Example 31, 5-(butanoylsulfamoyl)-N-[3-(5-chloro-1,3-benzoxazol-2-yl)-1-bicyclo[1.1.1]pentanyl]furan-2-carboxamide] | 5.44 | 5.32 | > 100
11 | CS(=O)(=O)c1ccc(C(=O)NC23CC(c4nc5ccc(Cl)cc5o4)(C2)C3)o1 [Example 32, N-[3-(6-chloro-1,3-benzoxazol-2-yl)-1-bicyclo[1.1.1]pentanyl]-5-methylsulfonyl-furan-2-carboxamide] | 5.25 | 5.46 | > 100
12 | O=C(NC12CC(c3nc4ccc(Cl)cc4o3)(C1)C2)c1ccc(S(=O)(=O)C2CC2)o1 [Example 33, N-[3-(6-chloro-1,3-benzoxazol-2-yl)-1-bicyclo[1.1.1]pentanyl]-5-cyclopropylsulfonyl-furan-2-carboxamide] | 6.10 | 6.24 | > 100
13 | O=C(NC12CC(c3nc4ccc(Cl)cc4o3)(C1)C2)c1ccc(S(=O)(=O)CC2CC2)o1 [Example 34, N-[3-(6-chloro-1,3-benzoxazol-2-yl)-1-bicyclo[1.1.1]pentanyl]-5-(cyclopropylmethylsulfonyl)furan-2-carboxamide] | 5.45 | 5.55 | 95.4
14 | CS(=N)(=O)c1ccc(C(=O)NC23CC(c4nc5ccc(Cl)cc5o4)(C2)C3)o1 (stereo not drawn) [Example 35, N-[3-(6-chloro-1,3-benzoxazol-2-yl)-1-bicyclo[1.1.1]pentanyl]-5-(methylsulfonimidoyl)furan-2-carboxamide] | 5.37 | 5.45 | > 100
15 | CS(=O)(=O)c1cccc(C(=O)NC23CC(c4nc5ccc(Cl)cc5o4)(C2)C3)c1 [Example 36, N-[3-(6-chloro-1,3-benzoxazol-2-yl)-1-bicyclo[1.1.1]pentanyl]-3-methylsulfonyl-benzamide] | 5.65 | 5.60 | > 100
16 | O=C(NC12CC(c3nc4ccc(Cl)cc4o3)(C1)C2)c1ccnc(C(F)(F)F)c1 [Example 37, N-[3-(6-chloro-1,3-benzoxazol-2-yl)-1-bicyclo[1.1.1]pentanyl]-2-(trifluoromethyl)pyridine-4-carboxamide] | 5.38 | 5.44 | > 100
17 | O=C(NC12CC(c3nc4ccc(Cl)cc4o3)(C1)C2)c1ccnc(S(=O)(=O)C2CC2)c1 [Example 38, N-[3-(6-chloro-1,3-benzoxazol-2-yl)-1-bicyclo[1.1.1]pentanyl]-2-cyclopropylsulfonyl-pyridine-4-carboxamide] | 5.18 | 5.35 | > 10
18 | CS(=O)(=O)Cc1ccc(C(=O)NC23CC(c4nc5ccc(Cl)cc5o4)(C2)C3)o1 [Example 39, N-[3-(6-chloro-1,3-benzoxazol-2-yl)-1-bicyclo[1.1.1]pentanyl]-5-(methylsulfonylmethyl)furan-2-carboxamide] | 6.19 | 6.12 | > 100
19 | CS(=N)(=O)Cc1ccc(C(=O)NC23CC(c4nc5ccc(Cl)cc5o4)(C2)C3)o1 (stereo not drawn) [Example 40, N-[3-(6-chloro-1,3-benzoxazol-2-yl)-1-bicyclo[1.1.1]pentanyl]-5-[(methylsulfonimidoyl)methyl]furan-2-carboxamide] | 5.16 | 5.39 | > 100
20 | CS(=O)(=O)Cc1ccc(C(=O)NC23CC(c4nc5cc(Cl)cnc5o4)(C2)C3)o1 [Example 41, N-[3-(6-chlorooxazolo[5,4-b]pyridin-2-yl)-1-bicyclo[1.1.1]pentanyl]-5-(methylsulfonylmethyl)furan-2-carboxamide] | 5.24 | 5.21 | > 100
21 | O=C(NC12CC(c3nc4cc(Cl)cnc4o3)(C1)C2)c1ccnc(C(F)(F)F)c1 [Example 42, N-[3-(6-chlorooxazolo[5,4-b]pyridin-2-yl)-1-bicyclo[1.1.1]pentanyl]-2-(trifluoromethyl)pyridine-4-carboxamide] | 5.05 | 4.97 | 92
22 | CS(=O)(=O)Cc1ccc(C(=O)NC23CC(c4nc5cnc(Cl)cc5o4)(C2)C3)o1 [Example 43, N-[3-(6-chlorooxazolo[4,5-c]pyridin-2-yl)-1-bicyclo[1.1.1]pentanyl]-5-(methylsulfonylmethyl)furan-2-carboxamide] | 5.12 | 5.26 | > 10
23 | CS(=O)(=O)c1ccc(C(=O)NC23CC(c4nc5cccc(Cl)c5o4)(C2)C3)o1 [Example 44, N-[3-(7-chloro-1,3-benzoxazol-2-yl)-1-bicyclo[1.1.1]pentanyl]-5-methylsulfonyl-furan-2-carboxamide] | 5.05 | 5.51 | > 100
24 | CS(=O)(=O)c1ccc(C(=O)NC23CC(c4nc5ccc(F)cc5o4)(C2)C3)o1 [Example 45, N-[3-(6-fluoro-1,3-benzoxazol-2-yl)-1-bicyclo[1.1.1]pentanyl]-5-methylsulfonyl-furan-2-carboxamide] | 5.06 | 5.35 | > 100
25 | CS(=O)(=O)c1ccc(C(=O)NC23CCC(c4nc5cc(Cl)ccc5o4)(CC2)C3)o1 [Example 46, N-[4-(5-chloro-1,3-benzoxazol-2-yl)norbornan-1-yl]-5-methylsulfonyl-furan-2-carboxamide] | 5.15 | 5.35 | 76.6
